The results in this text go back to patent US20090069441A1, “Motuporamine Mimic Agents” (priority 2006, published 2009).

One test relates to Drosophila imaginal leg discs. Nature of the test: Imaginal disc eversion assay. Format: cell-based, Drosophila melanogaster. The note with it: 18 μM; 15 hr incubation in Robb's medium. On the procedure: DihydroMotuporamine C, 4a, was used to develop an imaginal disc assay in Drosophila flies. The imaginal leg discs were collected by microscopic dissection from maggots. […] Inhibition was measured as failure of the disc to fully develop into a fly leg after 15 hr of incubation in Robb's growth medium. This presumably occurs by overactivation of Rho, an important signaling pathway in development. Hyper-stimulation of this pathway is sufficient to block development of the fly leg.
Fly Stocks: 20 female and 5 male wild type Oregon variant of Drosophila melanogaster interbred in blue food medium for 24 hours then flies are removed. Third instar wall-crawling larvae collected then dissected on the sixth day. Flies kept in 25° C. incubation chamber.
Blue Food Preparation: Standard corn meal medium heated then mixed completely with aqueous 1% Bromophenol Blue. The food medium is cooled for one day or more before use.
Dissection Medium: Ringer's Buffer with 10 uL 0.1% BSA. Ringer's Medium consists of 130 mM NaCl, 5 mM KCl, 1.5 mM CaCl2-2H2O, Stored at room temperature (23° C.), BSA added before dissection.
Cultivation Medium: Minimal Robb's Medium with 10 uL 0.1% BSA. Minimal Robb's Medium consists of 40 mM KCl, 0.4 mM KH2PO4, 40 mM NaCl, 0.4 mM NaH2PO4.7H2O, 1.2 mM MgSO4.7H2O, 1.2 mM MgCl2-6H2O, 1 mM CaCl2-2H2O, 10 mM Glucose, 0.2 mM L-asparagine, 4.0 mM L-glutamine, 0.16 mM Glycine, 0.64 mM L-leucine, 0.32 mM L-proline, 0.16 mM R-Serine, 0.64 mM L-valine. Stored at −25° C. One day before dissection, aliquot defrosted in 4° C. Add BSA then warmed to room temperature (23° C.) before dissection.
0.1% BSA: 0.1 g BSA fraction V (Sigma#A-9647) in 10 mL distilled H2O, Stored at 4° C.
Developmental Hormone: 1 mg 20-hydroxyecdysone (Sigma #H-5142) in 1 mL 100% Ethanol. Stored at −25° C. Before use, stock is diluted 10× (1 mL added to 9 mL of 100% Ethanol). 10 μL of diluted 20-hydroxyecdysone is added to culture.
Dissection Procedures: Third instar larvae are removed from cultivation bottle with a wetted brush and washed in dH2O to remove food medium clinging to larvae. The cleaned larvae are dissected in Ringer's Medium using forceps. The imaginal discs are washed in fresh Ringer's Medium, and then cultivated with 1 mL of Robb's Medium in 12-well culture plate. Each culture well should have 30˜40 imaginal discs.
Culturing Procedures: In a larger container, place the 12-well culture plate on a moist towel, then seal the large container. Cultivate at 25° C. for 15 hours. Evaluation: Three categories will be used to grade the eversion of each imaginal disc. Full Eversion—the leg is fully extended from the disc. Partial Eversion—the leg is protruding from the epithelial. No Eversion—no sign of any protrusion.
On to `NCCCCNCc1c2ccccc2cc2ccccc12` [Compound 13b], for which the “% Inhibition of eversion” value was found to be 91%.

The same test, now with this note: Drosophila melanogaster, 15 hr incubation in Robb's medium.
One may read the inhibition as the change of the read-out against control, counted positive when it falls. A low value points to a weak effect. Compound `CCOCCCNCCCN(CC)Cc1c2ccccc2cc2ccccc12` [Compound 21, N-Anthracen-9-ylmethyl-N′-(3-ethoxy-propyl)-N-ethyl-propane-1,3-diamine] came in with an inhibition at 18 µM of 36%.
The compound `CCN(CCCNCCCNC(C)=O)Cc1c2ccccc2cc2ccccc12` [Compound 24, N-{3-[3-(Anthracen-9-ylmethyl-ethyl-amino)-propylamino]-propyl}-acetamide] had an inhibition at 18 µM of 58%.
Compound `NCCCNCc1c2ccccc2cc2ccccc12` [Compound 16, N1-Anthracen-9-ylmethyl-propane-1,3-diamine] returned an inhibition at 18 µM of 92%.
In turn, `CCN(CCCN)Cc1c2ccccc2cc2ccccc12` [Compound 12c, N^1-Anthracen-9-ylmethyl-N^1-ethyl-propane-1,3-diamine] yielded an inhibition at 18 µM of 79%.
On to `CCN(CCCNCCCO)Cc1c2ccccc2cc2ccccc12` [Compound 20, 3-[3-(Anthracen-9-ylmethyl-ethyl-amino)-propylamino]-propan-1-ol], for which the inhibition at 18 µM was determined as 38%.
